# Test results taken from ChEMBL document CHEMBL1141249, “Lucentamycins A-D, cytotoxic peptides from the marine-derived actinomycete Nocardiopsis lucentensis” (J Nat Prod, 2007).
# The source made the active and inactive calls. The calls are words filed in the database; no cut-off is given here.
# Legend:
# HCT-116 [1] = experiment: Cytotoxicity against human HCT116 cells upto 150 uM by MTS assay; type: functional, cell-based
# HCT-116 [2] = experiment: Cytotoxicity against human HCT116 cells by MTS assay; type: functional, cell-based
Structure (SMILES),Activity (HCT-116 [1]),IC50 (HCT-116 [2]) [µM]
C/C=C1\CN(C(=O)[C@H](CCCCNC(=N)N)NC(=O)CC(C)C)[C@H](C(=O)N[C@@H](CC(C)C)C(=O)O)[C@@H]1C,inactive,–
C/C=C1\CN(C(=O)[C@H](CCCCNC(=N)N)NC(=O)C=C(C)C)[C@H](C(=O)N[C@@H](CC(C)C)C(=O)O)[C@@H]1C,inactive,–
C/C=C1\CN(C(=O)[C@H](CCCCNC(=N)N)NC(=O)c2ccccc2)[C@H](C(=O)N[C@@H](CC(C)C)C(=O)O)[C@@H]1C [LUCENTAMYCIN A],–,0.2
C/C=C1/CN(C(=O)[C@H](CCCCNC(=N)N)NC(=O)CC(C)C)[C@H](C(=O)N[C@@H](Cc2c[nH]c3ccccc23)C(=O)O)[C@@H]1C [LUCENTAMYCIN B],–,11
